From US9550796B2, “Pyrrolopyrrolone derivatives and their use as BET inhibitors” (NOVARTIS AG, priority 2013, dated 2017) come the findings set out here.

One experiment addresses BRD3 (Homo sapiens (Human), UniProt Q15059). Kind of experiment: TR-FRET in-vitro binding assay for BRD3. Conditions: 45 nM His-Brd3(20-477), acetyl-histone H4 (AcK 5, 8, 12, 16) peptide. Summed up:
(§1)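 TR-FRET binding read after 35 min incubation at 30° C. Compounds dispensed from 90% DMSO solutions and tested at 8 concentrations in a 13.55 μL total reaction volume.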

Another experiment concerns MV-4-11. Briefly: Cell growth inhibition assay (CellTiter-Glo), MV-4-11. In kind it is cell-based, human. To be noted: MV-4-11 cells, 4 days; for GI50: Homo sapiens, MV4-11, 96 h, half-maximal growth inhibition; for MV-4-11 TGI: total growth inhibition. The essentials: (§2)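 4-day CTG ATP readout, 37 °C/5% CO2; top conc 10 μM, 3-fold dilutions; 0.1% DMSO vehicle. Luminescence background-subtracted, normalised to day 0 plate; vehicle = 100%, medium = −100%. IC50/TGI by 4-parameter fit.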

The next experiment relates to THP-1. Kind of experiment: Cell growth inhibition assay (CellTiter-Glo), THP-1. Type of experiment: cell-based, human. To be noted: THP-1 cells, 4 days; for GI50: Homo sapiens, 96 h, half-maximal growth inhibition; for THP-1 TGI: total growth inhibition. Summed up:
as §2
(In general: ATP-based viability assays read luminescence as a measure of living cells.)

The next experiment deals with K-562. Kind of experiment: Cell growth inhibition assay (CellTiter-Glo), K-562. In kind it is cell-based, human. Conditions: K-562 cells, 4 days; for GI50: Homo sapiens, K562, 96 h, half-maximal growth inhibition; for K-562 TGI: total growth inhibition. Summed up:
as §2

The target of a further experiment is BRD2 (Homo sapiens (Human), UniProt P25440). Kind of experiment: TR-FRET in-vitro binding assay for BRD2. To be noted: 45 nM His-Brd2(60-472), acetyl-histone H4 (AcK 5, 8, 12, 16) peptide. The essentials: as §1
Background: Time-resolved FRET reads energy transfer from a long-lived donor to a nearby acceptor.

In the next experiment the target is BRD4 (Homo sapiens (Human), UniProt O60885). Kind of experiment: TR-FRET in-vitro binding assay for BRD4. To be noted: 45 nM His-Brd4(44-477), acetyl-histone H4 (AcK 5, 8, 12, 16) peptide. The essentials:
as §1

A further experiment deals with BRD4-NUT-fusion (Homo sapiens, UniProt O60885). Briefly: Nut-foci formation assay in HCC2494 NUT midline carcinoma cells. Type of experiment: cell-based. Conditions: 24 hours, nuclear BRD4-NUT foci by immunofluorescence microscopy, read-out: HCS Brd4-NUT IC50. As to the method:
Nut-Foci Formation Assay […] Compound-mediated inhibition of BRD4 activity can be monitored by quantification of the number and intensity of nuclear BRD4-NUT foci using automated immunofluorescence microscopy. Briefly, 5000 cells in 20 μL fresh medium are seeded into Poly-D-Lysine-precoated 384-well plates and incubated overnight at 37° C. and 5% CO2, followed by addition of 5 μl medium containing compound dilutions at 5-fold their final intended concentration. […] Assay plates can be imaged using the appropriate filter sets on the Cellomics VTi automated fluorescence microscopy platform (ThermoFisher Scientific) and the population average of the number of NUT-foci per nucleus is quantified using the Cellomics Spot Detection BioApplication image analysis algorithm (ThermoFisher Scientific). […] Compound concentrations leading to half-maximal (IC50) inhibition of the aforementioned readout parameters are determined using standard four parameter curve fitting.

In a further experiment the target is CREBBP (Homo sapiens (Human), UniProt Q92793). Kind of experiment: AlphaScreen in-vitro binding assay for CREBBP. To be noted: 324 nM His-CREBBP (1081-1197), acetyl-histone H4 (AcK 5, 8, 12) peptide. The essentials:
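IC50 values were derived by non-linear regression of percent inhibition across 8 compound concentrations. Protein was His-tagged CREBBP bromodomain (1081-1197), peptide acetyl-histone H4 (AcK 5, 8, 12), in HEPES pH 7.5 buffer. Read-out was AlphaScreen with Ni-chelate acceptor and streptavidin donor beads, 35 min at 30° C then 60 min at RT.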

The IC50 is the midpoint of a concentration-inhibition curve. For orientation: GI50 means the concentration giving 50% growth inhibition. A lower GI50 goes with greater sensitivity of the cells.

BRD2, sequence (P25440 60-472): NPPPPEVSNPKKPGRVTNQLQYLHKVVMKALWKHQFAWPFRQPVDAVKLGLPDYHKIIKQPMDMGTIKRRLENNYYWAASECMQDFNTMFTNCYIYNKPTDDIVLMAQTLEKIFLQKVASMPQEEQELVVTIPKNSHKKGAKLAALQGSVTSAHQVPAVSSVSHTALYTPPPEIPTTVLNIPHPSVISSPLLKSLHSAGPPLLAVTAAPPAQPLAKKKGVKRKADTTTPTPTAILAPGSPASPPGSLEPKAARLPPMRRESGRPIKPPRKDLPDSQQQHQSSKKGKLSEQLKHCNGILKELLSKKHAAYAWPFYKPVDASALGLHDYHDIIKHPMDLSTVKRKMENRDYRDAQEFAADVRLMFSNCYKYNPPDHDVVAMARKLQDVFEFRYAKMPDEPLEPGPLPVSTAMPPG
CREBBP, sequence (Q92793 1081-1197): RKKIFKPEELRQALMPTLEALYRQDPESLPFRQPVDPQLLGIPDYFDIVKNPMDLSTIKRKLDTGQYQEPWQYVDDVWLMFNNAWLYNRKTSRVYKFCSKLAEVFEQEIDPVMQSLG
BRD3, sequence (Q15059 20-477): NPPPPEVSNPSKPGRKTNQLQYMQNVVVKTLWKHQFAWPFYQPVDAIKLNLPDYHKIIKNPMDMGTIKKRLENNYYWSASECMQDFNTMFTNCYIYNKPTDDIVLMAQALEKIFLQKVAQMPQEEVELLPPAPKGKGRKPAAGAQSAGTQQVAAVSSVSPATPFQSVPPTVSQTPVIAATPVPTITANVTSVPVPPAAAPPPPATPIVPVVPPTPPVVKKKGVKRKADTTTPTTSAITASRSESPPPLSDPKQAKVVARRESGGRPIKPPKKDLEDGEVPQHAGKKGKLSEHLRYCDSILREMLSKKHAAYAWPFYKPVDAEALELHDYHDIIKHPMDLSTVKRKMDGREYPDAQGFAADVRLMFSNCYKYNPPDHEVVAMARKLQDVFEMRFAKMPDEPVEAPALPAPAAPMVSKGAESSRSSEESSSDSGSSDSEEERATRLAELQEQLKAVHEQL

For `Cc1cc(N2C(=O)c3ccn(C4CC4)c3C2c2ccc(Cl)cc2)cn(C)c1=O` (centres unmarked) [Example 61, 6-(4-chlorophenyl)-1-cyclopropyl-5-(1,5-dimethyl-6-oxo-1,6-dihydropyridin-3-yl)-5,6-dihydropyrrolo[3,4-b]pyrrol-4(1H)-one], the half-inhibitory concentration (IC50) on BRD3 was determined as 53 nM; on BRD2 it was 68 nM; at BRD4, 68 nM; on BRD4-NUT-fusion it was 136 nM. Further, the concentration for 50% growth inhibition (GI50) in the experiment with MV-4-11 stood at 61.6 nM; with THP-1 it was 102 nM; with K-562, 421 nM. For the same compound, in the experiment with MV-4-11, the “MV-4-11 TGI” value was 106 nM. Besides, the “THP-1 TGI” value in the experiment on THP-1 was found to be 224 nM. Also, the “K-562 TGI” value with K-562 was above 10000 nM.

With `Cc1cc(N2C(=O)c3cc(-c4ccc(N(C)C)nc4)n(C)c3C2c2ccc(Cl)cc2)cn(C)c1=O` (centres unmarked) [Example 50, 6-(4-chlorophenyl)-5-(1,5-dimethyl-6-oxo-1,6-dihydropyridin-3-yl)-2-(6-(dimethylamino)pyridin-3-yl)-1-methyl-5,6-dihydropyrrolo[3,4-b]pyrrol-4(1H)-one], the IC50 on BRD3 turned out to be 42 nM; on BRD2, 37 nM; at BRD4, 46 nM; on BRD4-NUT-fusion, 73.3 nM. Further, the GI50 in the experiment on MV-4-11 was 20.8 nM; in the experiment with THP-1, 31.6 nM; in the experiment with K-562 it was 105 nM. Moreover, the “MV-4-11 TGI” value in the experiment with MV-4-11 was found to be 33 nM. Moreover, the “THP-1 TGI” value in the experiment with THP-1 turned out to be 64.9 nM. Also, the “K-562 TGI” value in the experiment with K-562 is above 10000 nM.

As to `Cn1ccc2c1C(c1ccc(Cl)cc1)N(c1ccc(=O)n(C)c1)C2=O` (centres unmarked) [Example 78, 6-(4-chlorophenyl)-1-methyl-5-(1-methyl-6-oxo-1,6-dihydropyridin-3-yl)-5,6-dihydropyrrolo[3,4-b]pyrrol-4(1H)-one], in the experiment with MV-4-11, the concentration for 50% growth inhibition (GI50) was determined as 486 nM and the “MV-4-11 TGI” value came out at 794.5 nM. In the experiment with THP-1, growth was halved (GI50) at 573 nM and the “THP-1 TGI” value was determined as 1350 nM. Further, in the experiment on K-562, the GI50 was found to be 1610 nM and the “K-562 TGI” value was above 10000 nM. Further, the half-maximal inhibitory concentration (IC50) at BRD4 worked out at 150 nM. Further, at BRD4-NUT-fusion, the IC50 was 729 nM.

As for `COc1ncc(-c2cc3c(n2C)C(c2ccc(Cl)cc2)N(c2cc(C)c(=O)n(C)c2)C3=O)cn1` (centres unmarked) [Example 55, 6-(4-chlorophenyl)-5-(1,5-dimethyl-6-oxo-1,6-dihydropyridin-3-yl)-2-(2-methoxypyrimidin-5-yl)-1-methyl-5,6-dihydropyrrolo[3,4-b]pyrrol-4(1H)-one], the IC50 at BRD3 was 50 nM; at BRD2, 53 nM; at BRD4, 52 nM; on BRD4-NUT-fusion it was 146 nM. The concentration for 50% growth inhibition (GI50) stood at 34.5 nM in the experiment with MV-4-11, 76.3 nM with THP-1 and 231 nM in the experiment on K-562. Further, the “MV-4-11 TGI” value with MV-4-11 is 54.2 nM. The “THP-1 TGI” value in the experiment on THP-1 is 130 nM. Moreover, the “K-562 TGI” value with K-562 was above 10000 nM.

In the case of `Cc1cc(N2C(=O)c3ccn(C)c3C2c2ccc(F)cc2)cn(C)c1=O` (centres unmarked) [Example 82, 5-(1,5-dimethyl-6-oxo-1,6-dihydropyridin-3-yl)-6-(4-fluorophenyl)-1-methyl-5,6-dihydropyrrolo[3,4-b]pyrrol-4(1H)-one], the IC50 was 140 nM on BRD3, 4700 nM on CREBBP, 230 nM on BRD2 and 195 nM at BRD4. Besides, the concentration for 50% growth inhibition (GI50) amounted to 104 nM in the experiment with MV-4-11, 206 nM in the experiment with THP-1 and 618 nM with K-562. Also, the “MV-4-11 TGI” value in the experiment on MV-4-11 is 189 nM. Further, the “THP-1 TGI” value with THP-1 was determined as 397 nM. In the experiment with K-562, the “K-562 TGI” value is above 10000 nM.

Turning to `CNC(=O)c1cn(C)c2c1C(=O)N(c1cc(C)c3nnn(C)c3n1)C2c1ccc(Cl)cc1` (centres unmarked) [Example 93, 6-(4-chlorophenyl)-5-(3,7-dimethyl-3H-[1,2,3]triazolo[4,5-b]pyridin-5-yl)-N,1-dimethyl-4-oxo-1,4,5,6-tetrahydropyrrolo[3,4-b]pyrrole-3-carboxamide], the concentration for half-maximal inhibition (IC50) at BRD3 is 14 nM; on CREBBP, above 37000 nM; at BRD2, 15 nM; on BRD4, 13 nM. The concentration for 50% growth inhibition (GI50) in the experiment with MV-4-11 was 2.54 nM; in the experiment on THP-1, 3.12 nM; in the experiment with K-562 it was 27.4 nM. For the same compound, in the experiment with MV-4-11, the “MV-4-11 TGI” value is 10.49 nM. In addition, the “THP-1 TGI” value in the experiment with THP-1 was determined as 11.24 nM. In addition, the “K-562 TGI” value in the experiment with K-562 was above 10000 nM.

Consider `COCC(=O)N1CC(n2cc(C)c3c2C(c2ccc(Cl)cc2)N(c2cc(C)c4nnc(C)n4c2)C3=O)C1` (centres unmarked) [Example 12, 6-(4-chlorophenyl)-5-(3,8-dimethyl-[1,2,4]triazolo[4,3-a]pyridin-6-yl)-1-(1-(2-methoxyacetyl)azetidin-3-yl)-3-methyl-5,6-dihydropyrrolo[3,4-b]pyrrol-4(1H)-one], for which the IC50 on BRD3 is 52 nM; at CREBBP, 23900 nM; on BRD2, 80 nM; on BRD4, 54 nM. Further, the 50% growth inhibitory concentration (GI50) with MV-4-11 came out at 74.8 nM; with THP-1 it was 219 nM; with K-562, 1050 nM. The “MV-4-11 TGI” value in the experiment on MV-4-11 was determined as 149 nM. For the same compound, the “THP-1 TGI” value with THP-1 came to 618.5 nM. The “K-562 TGI” value with K-562 is above 10000 nM.
